Measured values as given in the kinase profiling compilation of Christmann-Franck et al. (2016).
Values joined by “and” are separate entries in the source; they are usually repeats but may differ in a detail not shown here. Equal values may be shown once.

Legend:
Assay in all cases: KINOMEscan competition binding
Conditions in all cases: compound 1.0 µM
WEE1 (human) = WEE1 (human) (UniProt P30291)
[1] = tested on: KIT (human), P10721 [D816V]
STK16 (human) = STK16 (human) (UniProt O75716)
AURKA (human) = AURKA (human) (UniProt O14965)
DYRK1A (human) = DYRK1A (human) (UniProt Q13627)
CDK19 (human) = CDK19 (human) (UniProt Q9BWU1)
ERBB2 (human) = ERBB2 (human) (UniProt P04626)
PIM2 (human) = PIM2 (human) (UniProt Q9P1W9)
RPS6KA6 KD2 (human) = RPS6KA6 KD2 (human) (UniProt Q9UK32)
PTK6 (human) = PTK6 (human) (UniProt Q13882)
MAP3K3 (human) = MAP3K3 (human) (UniProt Q99759)
MAPKAPK2 (human) = MAPKAPK2 (human) (UniProt P49137)
CAMKK2 (human) = CAMKK2 (human) (UniProt Q96RR4)
CAMKK2 (human), sequence (Q96RR4 whole entry, looked up): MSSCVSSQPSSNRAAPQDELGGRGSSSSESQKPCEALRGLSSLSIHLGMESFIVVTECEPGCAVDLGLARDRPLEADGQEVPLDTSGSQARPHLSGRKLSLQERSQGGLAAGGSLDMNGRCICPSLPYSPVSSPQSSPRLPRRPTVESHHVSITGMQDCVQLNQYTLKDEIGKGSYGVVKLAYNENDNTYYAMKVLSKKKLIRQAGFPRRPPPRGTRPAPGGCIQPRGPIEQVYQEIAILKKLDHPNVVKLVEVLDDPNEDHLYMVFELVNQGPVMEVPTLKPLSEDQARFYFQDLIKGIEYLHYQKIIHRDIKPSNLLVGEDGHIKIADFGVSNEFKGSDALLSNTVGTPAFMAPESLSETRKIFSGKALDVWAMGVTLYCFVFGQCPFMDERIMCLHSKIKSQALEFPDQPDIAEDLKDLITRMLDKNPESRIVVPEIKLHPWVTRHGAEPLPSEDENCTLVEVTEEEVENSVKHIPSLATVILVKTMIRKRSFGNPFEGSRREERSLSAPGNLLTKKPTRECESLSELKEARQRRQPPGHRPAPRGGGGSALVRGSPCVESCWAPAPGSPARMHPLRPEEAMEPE

[2] = tested on: EIF2AK4 KD2 (human), Q9P2K8 [S808G]
EGFR (human) = EGFR (human) (UniProt P00533)
MAPK1 (human) = MAPK1 (human) (UniProt P28482)
[3] = tested on: FLT3 (human), P36888 [ITD]
PHKG2 (human) = PHKG2 (human) (UniProt P15735)
[4] = tested on: EGFR (human), P00533 [752-759 del]
STK32C (human) = STK32C (human) (UniProt Q86UX6)
STK32C (human), sequence (Q86UX6 whole entry, looked up): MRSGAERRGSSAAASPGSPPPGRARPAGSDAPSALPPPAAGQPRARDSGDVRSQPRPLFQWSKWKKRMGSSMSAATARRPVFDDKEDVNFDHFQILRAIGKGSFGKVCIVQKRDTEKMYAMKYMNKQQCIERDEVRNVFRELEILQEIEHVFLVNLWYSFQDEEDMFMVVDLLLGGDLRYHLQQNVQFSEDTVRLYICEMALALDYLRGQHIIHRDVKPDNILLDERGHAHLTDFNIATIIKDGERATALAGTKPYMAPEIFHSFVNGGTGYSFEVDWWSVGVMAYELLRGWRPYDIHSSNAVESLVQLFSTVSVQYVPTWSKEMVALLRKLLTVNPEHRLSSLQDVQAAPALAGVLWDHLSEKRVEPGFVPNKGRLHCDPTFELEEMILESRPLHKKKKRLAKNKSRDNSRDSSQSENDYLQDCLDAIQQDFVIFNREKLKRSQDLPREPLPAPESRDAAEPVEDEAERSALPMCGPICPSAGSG

DYRK1B (human) = DYRK1B (human) (UniProt Q9Y463)
MAP2K3 (human) = MAP2K3 (human) (UniProt P46734)
MLTK (human) = MLTK (human) (UniProt Q9NYL2)
CDK3 (human) = CDK3 (human) (UniProt Q00526)
GRK7 (human) = GRK7 (human) (UniProt Q8WTQ7)
GRK7 (human), sequence (Q8WTQ7 whole entry, looked up): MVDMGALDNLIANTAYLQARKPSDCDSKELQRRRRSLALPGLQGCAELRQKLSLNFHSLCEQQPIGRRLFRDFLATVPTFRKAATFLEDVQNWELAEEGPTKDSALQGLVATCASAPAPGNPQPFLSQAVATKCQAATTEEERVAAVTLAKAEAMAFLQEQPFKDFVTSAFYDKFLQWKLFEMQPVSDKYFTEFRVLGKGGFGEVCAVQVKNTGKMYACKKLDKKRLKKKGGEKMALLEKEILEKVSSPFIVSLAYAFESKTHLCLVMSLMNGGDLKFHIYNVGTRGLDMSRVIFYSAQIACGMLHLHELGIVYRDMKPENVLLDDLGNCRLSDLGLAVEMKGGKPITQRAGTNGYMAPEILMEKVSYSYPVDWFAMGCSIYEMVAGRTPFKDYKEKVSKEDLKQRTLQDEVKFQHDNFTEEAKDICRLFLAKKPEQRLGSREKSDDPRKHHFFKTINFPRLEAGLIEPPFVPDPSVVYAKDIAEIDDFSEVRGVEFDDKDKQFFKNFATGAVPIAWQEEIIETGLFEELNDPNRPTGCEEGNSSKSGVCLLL

PRKACB (human) = PRKACB (human) (UniProt P22694)
CSNK1E (human) = CSNK1E (human) (UniProt P49674)
STK3 (human) = STK3 (human) (UniProt Q13188)
STK3 (human), sequence (Q13188 whole entry, looked up): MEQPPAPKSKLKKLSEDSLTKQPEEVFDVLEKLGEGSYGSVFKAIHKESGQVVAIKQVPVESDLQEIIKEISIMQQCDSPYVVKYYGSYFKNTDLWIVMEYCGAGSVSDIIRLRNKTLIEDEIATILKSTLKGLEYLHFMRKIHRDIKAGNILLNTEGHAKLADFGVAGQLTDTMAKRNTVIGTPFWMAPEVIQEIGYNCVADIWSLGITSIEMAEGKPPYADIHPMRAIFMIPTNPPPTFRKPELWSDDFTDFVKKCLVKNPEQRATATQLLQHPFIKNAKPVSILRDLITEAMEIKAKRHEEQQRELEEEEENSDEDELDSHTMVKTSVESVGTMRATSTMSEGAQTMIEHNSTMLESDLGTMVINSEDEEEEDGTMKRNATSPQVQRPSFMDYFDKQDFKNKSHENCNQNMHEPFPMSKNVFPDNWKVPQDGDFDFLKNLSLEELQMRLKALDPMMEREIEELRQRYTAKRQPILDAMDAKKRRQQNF

EPHB3 (human) = EPHB3 (human) (UniProt P54753)
PRKD1 (human) = PRKD1 (human) (UniProt Q15139)
PRKD1 (human), sequence (Q15139 whole entry, looked up): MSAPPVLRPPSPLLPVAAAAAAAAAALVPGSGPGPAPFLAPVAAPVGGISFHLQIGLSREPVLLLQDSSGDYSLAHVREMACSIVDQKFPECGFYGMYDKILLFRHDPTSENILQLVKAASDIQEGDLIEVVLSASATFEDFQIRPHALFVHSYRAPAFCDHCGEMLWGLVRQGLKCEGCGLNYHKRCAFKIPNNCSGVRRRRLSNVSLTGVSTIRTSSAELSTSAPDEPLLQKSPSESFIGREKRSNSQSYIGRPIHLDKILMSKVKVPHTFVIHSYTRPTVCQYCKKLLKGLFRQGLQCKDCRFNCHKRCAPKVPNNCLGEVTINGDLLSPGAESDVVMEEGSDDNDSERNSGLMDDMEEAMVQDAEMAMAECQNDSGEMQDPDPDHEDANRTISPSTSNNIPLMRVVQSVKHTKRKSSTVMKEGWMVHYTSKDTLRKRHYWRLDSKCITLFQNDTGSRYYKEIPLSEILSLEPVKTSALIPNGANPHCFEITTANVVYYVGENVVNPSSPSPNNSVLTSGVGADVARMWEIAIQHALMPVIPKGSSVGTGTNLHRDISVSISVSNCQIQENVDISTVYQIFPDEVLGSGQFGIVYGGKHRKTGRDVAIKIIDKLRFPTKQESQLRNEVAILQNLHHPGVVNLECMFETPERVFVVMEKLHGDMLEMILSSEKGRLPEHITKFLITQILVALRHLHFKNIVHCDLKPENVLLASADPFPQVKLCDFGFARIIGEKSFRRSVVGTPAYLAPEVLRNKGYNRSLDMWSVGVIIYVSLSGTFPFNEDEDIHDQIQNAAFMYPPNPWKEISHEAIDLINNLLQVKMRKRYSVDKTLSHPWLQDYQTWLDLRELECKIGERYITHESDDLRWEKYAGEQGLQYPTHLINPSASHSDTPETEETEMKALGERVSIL

FLT4 (human) = FLT4 (human) (UniProt P35916)
TAOK1 (human) = TAOK1 (human) (UniProt Q7L7X3)
TAOK1 (human), sequence (Q7L7X3 whole entry, looked up): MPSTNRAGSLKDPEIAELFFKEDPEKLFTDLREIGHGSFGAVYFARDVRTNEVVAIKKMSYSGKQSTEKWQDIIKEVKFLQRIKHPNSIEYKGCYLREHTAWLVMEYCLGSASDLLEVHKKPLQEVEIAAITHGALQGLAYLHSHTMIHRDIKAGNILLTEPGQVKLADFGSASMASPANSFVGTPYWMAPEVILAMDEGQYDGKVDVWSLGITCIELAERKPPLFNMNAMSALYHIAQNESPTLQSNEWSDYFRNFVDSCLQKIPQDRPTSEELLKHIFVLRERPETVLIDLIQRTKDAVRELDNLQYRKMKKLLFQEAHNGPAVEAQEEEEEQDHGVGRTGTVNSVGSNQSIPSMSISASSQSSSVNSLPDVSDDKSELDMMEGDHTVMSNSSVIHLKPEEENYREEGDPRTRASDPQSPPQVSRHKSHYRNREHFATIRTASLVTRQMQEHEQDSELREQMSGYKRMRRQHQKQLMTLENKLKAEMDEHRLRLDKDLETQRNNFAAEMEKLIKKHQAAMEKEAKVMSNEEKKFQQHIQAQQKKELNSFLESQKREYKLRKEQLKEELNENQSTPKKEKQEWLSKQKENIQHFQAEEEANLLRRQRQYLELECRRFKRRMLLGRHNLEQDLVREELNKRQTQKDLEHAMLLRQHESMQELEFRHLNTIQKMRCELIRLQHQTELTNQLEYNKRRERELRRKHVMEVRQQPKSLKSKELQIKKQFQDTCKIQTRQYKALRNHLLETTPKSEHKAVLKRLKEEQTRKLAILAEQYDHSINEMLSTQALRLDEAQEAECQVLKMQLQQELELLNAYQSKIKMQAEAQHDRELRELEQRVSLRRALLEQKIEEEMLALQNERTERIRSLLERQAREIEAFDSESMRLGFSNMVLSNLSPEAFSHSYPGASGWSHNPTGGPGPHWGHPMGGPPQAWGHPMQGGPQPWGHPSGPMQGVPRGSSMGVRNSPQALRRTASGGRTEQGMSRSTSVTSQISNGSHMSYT

EPHA4 (human) = EPHA4 (human) (UniProt P54764)
SRC (human) = SRC (human) (UniProt P12931)
[5] = tested on: ABL1 (human), P00519 [E255K]
TNK2 (human) = TNK2 (human) (UniProt Q07912)
NIM1 (human) = NIM1 (human) (UniProt Q8IY84)
NEK6 (human) = NEK6 (human) (UniProt Q9HC98)
PRKAA1 (human) = PRKAA1 (human) (UniProt Q13131)
[6] = tested on: KIT (human), P10721 [V559D/V654A]
KIT (human), P10721 [V559D/V654A], sequence (P10721 whole entry V559D/V654A, looked up): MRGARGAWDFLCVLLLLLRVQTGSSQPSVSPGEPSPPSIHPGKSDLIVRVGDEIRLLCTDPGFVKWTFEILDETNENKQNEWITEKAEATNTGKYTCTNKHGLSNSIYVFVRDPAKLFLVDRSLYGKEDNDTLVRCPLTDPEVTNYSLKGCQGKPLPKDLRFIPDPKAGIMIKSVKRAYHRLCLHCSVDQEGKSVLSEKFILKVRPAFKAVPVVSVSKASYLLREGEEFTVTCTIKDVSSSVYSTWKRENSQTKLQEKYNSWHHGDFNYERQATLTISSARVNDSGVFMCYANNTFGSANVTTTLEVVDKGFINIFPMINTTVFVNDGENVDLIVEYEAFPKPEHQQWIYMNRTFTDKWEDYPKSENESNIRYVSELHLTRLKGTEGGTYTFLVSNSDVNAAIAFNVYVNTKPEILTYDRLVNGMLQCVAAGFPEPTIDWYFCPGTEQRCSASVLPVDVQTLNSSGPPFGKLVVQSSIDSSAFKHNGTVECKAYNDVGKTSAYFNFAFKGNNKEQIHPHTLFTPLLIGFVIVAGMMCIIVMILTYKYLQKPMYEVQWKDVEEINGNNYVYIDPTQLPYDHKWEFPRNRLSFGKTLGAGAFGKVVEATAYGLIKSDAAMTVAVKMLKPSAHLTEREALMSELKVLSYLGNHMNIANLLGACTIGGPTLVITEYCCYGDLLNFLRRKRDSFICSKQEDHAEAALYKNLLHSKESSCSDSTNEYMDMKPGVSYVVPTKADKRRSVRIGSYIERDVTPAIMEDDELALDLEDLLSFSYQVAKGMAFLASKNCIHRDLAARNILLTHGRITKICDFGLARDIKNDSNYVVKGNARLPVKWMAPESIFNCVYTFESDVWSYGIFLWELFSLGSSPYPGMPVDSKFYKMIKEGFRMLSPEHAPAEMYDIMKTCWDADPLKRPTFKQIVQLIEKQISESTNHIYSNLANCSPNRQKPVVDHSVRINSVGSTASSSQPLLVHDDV

KIT (human), P10721 [D816V], sequence (P10721 whole entry D816V, looked up): as the sequence (P10721 whole entry V559D/V654A, looked up) above, with D559V, A654V, D816V counted along it

Nc1cc(C(F)(F)F)c(-c2cc(N3CCOCC3)nc(N3CCOCC3)n2)cn1
inhibition of binding (WEE1 (human)): 2%
inhibition of binding [1]: 3%
inhibition of binding (STK16 (human)): 0%
inhibition of binding (AURKA (human)): 0%
inhibition of binding (DYRK1A (human)): 11%
inhibition of binding (CDK19 (human)): 0%
inhibition of binding (ERBB2 (human)): 24%
inhibition of binding (PIM2 (human)): 0%
inhibition of binding (RPS6KA6 KD2 (human)): 18%
inhibition of binding (PTK6 (human)): 0%
inhibition of binding (MAP3K3 (human)): 0%
inhibition of binding (MAPKAPK2 (human)): 0%
inhibition of binding (CAMKK2 (human)): 0%
inhibition of binding [2]: 35%
inhibition of binding (EGFR (human)): 10%
inhibition of binding (MAPK1 (human)): 0%
inhibition of binding [3]: 0%
inhibition of binding (PHKG2 (human)): 11%
inhibition of binding [4]: 0%
inhibition of binding (STK32C (human)): 0%
inhibition of binding (DYRK1B (human)): 0%
inhibition of binding (MAP2K3 (human)): 0%
inhibition of binding (MLTK (human)): 0%
inhibition of binding (CDK3 (human)): 0%
inhibition of binding (GRK7 (human)): 3%
inhibition of binding (PRKACB (human)): 4%
inhibition of binding (CSNK1E (human)): 7%
inhibition of binding (STK3 (human)): 0%
inhibition of binding (EPHB3 (human)): 4%
inhibition of binding (PRKD1 (human)): 36%
inhibition of binding (FLT4 (human)): 3%
inhibition of binding (TAOK1 (human)): 0% and 2%
inhibition of binding (EPHA4 (human)): 2%
inhibition of binding (SRC (human)): 6%
inhibition of binding [5]: 0%
inhibition of binding (TNK2 (human)): 0%
inhibition of binding (NIM1 (human)): 0%
inhibition of binding (NEK6 (human)): 0%
inhibition of binding (PRKAA1 (human)): 3%
inhibition of binding [6]: 0%
